Assay results from the CheMixHub viscosity set.
± gives the uncertainty stated by the source.

Test: xn = mol fraction of the nth substance listed

Work on `CC(=O)c1ccc(Cl)cc1` + CC#N yielded a viscosity (308.15 K, 101 kPa, x1 = 0.0513) of 0.3576 ± 0.014 mPa·s, a viscosity (308.15 K, 101 kPa, x1 = 0.092) of 0.4065 ± 0.015 mPa·s and a viscosity (308.15 K, 101 kPa, x1 = 0.1488) of 0.479 ± 0.017 mPa·s. The viscosity (308.15 K, 101 kPa, x1 = 0.2128) was 0.5704 ± 0.02 mPa·s, the viscosity (308.15 K, 101 kPa, x1 = 0.2863) was 0.6742 ± 0.023 mPa·s and the viscosity (308.15 K, 101 kPa, x1 = 0.3792) was 0.8301 ± 0.027 mPa·s. The viscosity (308.15 K, 101 kPa, x1 = 0.4876) was 1.039 ± 0.033 mPa·s, the viscosity (308.15 K, 101 kPa, x1 = 0.6196) was 1.31 ± 0.041 mPa·s and the viscosity (308.15 K, 101 kPa, x1 = 0.7847) was 1.716 ± 0.053 mPa·s. For the same compound, the viscosity (308.15 K, 101 kPa, x1 = 0.865) was 1.96 ± 0.06 mPa·s and the viscosity (308.15 K, 101 kPa, x1 = 0.9536) was 2.224 ± 0.067 mPa·s.
For `CC(=O)c1ccc(Cl)cc1` + CN(C)c1ccccc1, the viscosity (303.15 K, 101 kPa, x2 = 0.0685) was 2.238 ± 0.027 mPa·s, the viscosity (303.15 K, 101 kPa, x2 = 0.1369) was 2.129 ± 0.026 mPa·s and the viscosity (303.15 K, 101 kPa, x2 = 0.2085) was 2.019 ± 0.025 mPa·s. It also gave a viscosity (303.15 K, 101 kPa, x2 = 0.2801) of 1.913 ± 0.024 mPa·s, a viscosity (303.15 K, 101 kPa, x2 = 0.3517) of 1.816 ± 0.023 mPa·s and a viscosity (303.15 K, 101 kPa, x2 = 0.4754) of 1.663 ± 0.021 mPa·s. The viscosity (303.15 K, 101 kPa, x2 = 0.551) was 1.576 ± 0.02 mPa·s, the viscosity (303.15 K, 101 kPa, x2 = 0.6023) was 1.53 ± 0.02 mPa·s and the viscosity (303.15 K, 101 kPa, x2 = 0.6538) was 1.478 ± 0.02 mPa·s. The viscosity (303.15 K, 101 kPa, x2 = 0.7316) was 1.404 ± 0.019 mPa·s, the viscosity (303.15 K, 101 kPa, x2 = 0.7852) was 1.355 ± 0.018 mPa·s and the viscosity (303.15 K, 101 kPa, x2 = 0.8376) was 1.307 ± 0.018 mPa·s. For the same compound, the viscosity (303.15 K, 101 kPa, x2 = 0.9175) was 1.24 ± 0.017 mPa·s, the viscosity (308.15 K, 101 kPa, x2 = 0.0685) was 2.175 ± 0.027 mPa·s and the viscosity (308.15 K, 101 kPa, x2 = 0.1369) was 2.065 ± 0.025 mPa·s. For the same compound, the viscosity (308.15 K, 101 kPa, x2 = 0.2085) was 1.954 ± 0.024 mPa·s, the viscosity (308.15 K, 101 kPa, x2 = 0.2801) was 1.849 ± 0.023 mPa·s and the viscosity (308.15 K, 101 kPa, x2 = 0.3517) was 1.752 ± 0.022 mPa·s. It also gave a viscosity (308.15 K, 101 kPa, x2 = 0.4754) of 1.597 ± 0.021 mPa·s, a viscosity (308.15 K, 101 kPa, x2 = 0.551) of 1.511 ± 0.02 mPa·s and a viscosity (308.15 K, 101 kPa, x2 = 0.6023) of 1.46 ± 0.019 mPa·s. It also gave a viscosity (308.15 K, 101 kPa, x2 = 0.6538) of 1.409 ± 0.019 mPa·s, a viscosity (308.15 K, 101 kPa, x2 = 0.7316) of 1.335 ± 0.018 mPa·s and a viscosity (308.15 K, 101 kPa, x2 = 0.7852) of 1.288 ± 0.018 mPa·s. For the same compound, the viscosity (308.15 K, 101 kPa, x2 = 0.8376) was 1.243 ± 0.017 mPa·s and the viscosity (308.15 K, 101 kPa, x2 = 0.9175) was 1.177 ± 0.017 mPa·s.
Work on `CCCCCCCCO` + CCCCCCCCCCCC yielded a viscosity (298.15 K, 101 kPa, x2 = 0.0554) of 6.58 ± 0.08 mPa·s, a viscosity (298.15 K, 101 kPa, x2 = 0.0999) of 6 ± 0.07 mPa·s and a viscosity (298.15 K, 101 kPa, x2 = 0.1554) of 5.3 ± 0.07 mPa·s. The viscosity (298.15 K, 101 kPa, x2 = 0.1998) was 4.78 ± 0.07 mPa·s, the viscosity (298.15 K, 101 kPa, x2 = 0.2555) was 4.16 ± 0.07 mPa·s and the viscosity (298.15 K, 101 kPa, x2 = 0.2998) was 3.71 ± 0.07 mPa·s. The viscosity (298.15 K, 101 kPa, x2 = 0.3554) was 3.19 ± 0.06 mPa·s, the viscosity (298.15 K, 101 kPa, x2 = 0.3998) was 2.81 ± 0.06 mPa·s and the viscosity (298.15 K, 101 kPa, x2 = 0.4554) was 2.39 ± 0.06 mPa·s. The viscosity (298.15 K, 101 kPa, x2 = 0.4999) was 2.1 ± 0.06 mPa·s, the viscosity (298.15 K, 101 kPa, x2 = 0.5555) was 1.78 ± 0.06 mPa·s and the viscosity (298.15 K, 101 kPa, x2 = 0.5998) was 1.57 ± 0.06 mPa·s. The viscosity (298.15 K, 101 kPa, x2 = 0.6555) was 1.35 ± 0.06 mPa·s, the viscosity (298.15 K, 101 kPa, x2 = 0.6998) was 1.22 ± 0.06 mPa·s and the viscosity (298.15 K, 101 kPa, x2 = 0.7554) was 1.1 ± 0.06 mPa·s. For the same compound, the viscosity (298.15 K, 101 kPa, x2 = 0.7998) was 1.04 ± 0.06 mPa·s, the viscosity (298.15 K, 101 kPa, x2 = 0.8555) was 1 ± 0.06 mPa·s and the viscosity (298.15 K, 101 kPa, x2 = 0.8999) was 1 ± 0.06 mPa·s. For the same compound, the viscosity (298.15 K, 101 kPa, x2 = 0.9555) was 1.04 ± 0.06 mPa·s.
Work on `CCCCCCCCO` + CCCCCCC yielded a viscosity (298.15 K, 101.33 kPa, x1 = 0.0448) of 0.4411 ± 0.0043 mPa·s, a viscosity (298.15 K, 101.33 kPa, x1 = 0.0922) of 0.4999 ± 0.0047 mPa·s and a viscosity (298.15 K, 101.33 kPa, x1 = 0.1826) of 0.6375 ± 0.0058 mPa·s. The viscosity (298.15 K, 101.33 kPa, x1 = 0.278) was 0.8198 ± 0.0073 mPa·s, the viscosity (298.15 K, 101.33 kPa, x1 = 0.3705) was 1.072 ± 0.0094 mPa·s and the viscosity (298.15 K, 101.33 kPa, x1 = 0.469) was 1.464 ± 0.013 mPa·s. The viscosity (298.15 K, 101.33 kPa, x1 = 0.5664) was 1.902 ± 0.017 mPa·s, the viscosity (298.15 K, 101.33 kPa, x1 = 0.6697) was 2.7 ± 0.025 mPa·s and the viscosity (298.15 K, 101.33 kPa, x1 = 0.7784) was 3.885 ± 0.037 mPa·s. The viscosity (298.15 K, 101.33 kPa, x1 = 0.8336) was 4.545 ± 0.044 mPa·s, the viscosity (298.15 K, 101.33 kPa, x1 = 0.8844) was 5.124 ± 0.051 mPa·s and the viscosity (298.15 K, 101.33 kPa, x1 = 0.9381) was 6.024 ± 0.061 mPa·s. It also gave a viscosity (308.15 K, 101.33 kPa, x1 = 0.0448) of 0.3932 ± 0.0038 mPa·s, a viscosity (308.15 K, 101.33 kPa, x1 = 0.0922) of 0.4375 ± 0.0042 mPa·s and a viscosity (308.15 K, 101.33 kPa, x1 = 0.1826) of 0.5457 ± 0.005 mPa·s. The viscosity (308.15 K, 101.33 kPa, x1 = 0.278) was 0.6942 ± 0.0062 mPa·s, the viscosity (308.15 K, 101.33 kPa, x1 = 0.3705) was 0.8964 ± 0.0078 mPa·s and the viscosity (308.15 K, 101.33 kPa, x1 = 0.469) was 1.149 ± 0.0099 mPa·s. The viscosity (308.15 K, 101.33 kPa, x1 = 0.5664) was 1.594 ± 0.014 mPa·s, the viscosity (308.15 K, 101.33 kPa, x1 = 0.6697) was 2.213 ± 0.019 mPa·s and the viscosity (308.15 K, 101.33 kPa, x1 = 0.7784) was 3.021 ± 0.027 mPa·s. For the same compound, the viscosity (308.15 K, 101.33 kPa, x1 = 0.8336) was 3.466 ± 0.032 mPa·s, the viscosity (308.15 K, 101.33 kPa, x1 = 0.8844) was 3.885 ± 0.036 mPa·s and the viscosity (308.15 K, 101.33 kPa, x1 = 0.9381) was 4.399 ± 0.041 mPa·s.
For `CC(C)(C)N` + CCOCCO, the viscosity (308.15 K, 101 kPa, x2 = 0.1082) was 0.5474 ± 0.056 mPa·s, the viscosity (308.15 K, 101 kPa, x2 = 0.2145) was 0.6798 ± 0.07 mPa·s and the viscosity (308.15 K, 101 kPa, x2 = 0.3189) was 0.8102 ± 0.083 mPa·s. It also gave a viscosity (308.15 K, 101 kPa, x2 = 0.4214) of 0.9309 ± 0.096 mPa·s, a viscosity (308.15 K, 101 kPa, x2 = 0.5221) of 1.046 ± 0.11 mPa·s and a viscosity (308.15 K, 101 kPa, x2 = 0.6211) of 1.149 ± 0.12 mPa·s. For the same compound, the viscosity (308.15 K, 101 kPa, x2 = 0.7182) was 1.245 ± 0.13 mPa·s, the viscosity (308.15 K, 101 kPa, x2 = 0.8138) was 1.327 ± 0.14 mPa·s and the viscosity (308.15 K, 101 kPa, x2 = 0.9077) was 1.399 ± 0.14 mPa·s.
